Laboratory results: US20250195552A1, “METHODS OF USING AVERMECTIN COMPOSITIONS FOR THE TREATMENT OF INFLAMMATORY DISORDERS AND DOSING REGIMENS” (priority 2022, published 2025)
“Also recorded” adds a separate entry of the source. Like-named read-outs stand apart in the source and are kept apart here.

Assays:
focal seizures = conditions: cited from earlier work
[1] = Pharmacokinetics of Ivermectin B1a in SD rat plasma after IV or oral administration
Description: Thirty-six male Sprague Dawley rats were randomly assigned into four groups, with nine male rats in each group. All animals in all groups are fasted overnight prior to the experimental date.
Blood samples were collected from 6 of 9 animals per group at 0.5, 1, 2, 3, 4, 6, 8, 24, 72, 120, 168 hours post-dose.

[2] = system: Th17-skewed human CD4+ T cells; assay: Cytokine secretion in Th17-skewed CD4+ T cells (ELISA); format: cell-based
Description: The supernatants were analyzed for IL-17, TL-21 and IFN-γ by ELISA.

[3] = system: STAT3 and IkBα phosphorylation in human CD4+ T cells; assay: Th17-induced STAT3 and IkBα phosphorylation (Western Blot); format: cell-based; conditions: Th17-skewing conditions, 2 hours
Description: The cell lysates were prepared and analyzed by Western Blot. One representative of three different experiments is shown.

[4] = system: human CD4+ T cells activated under Th17 skewing conditions; assay: FoxP3 expression (RT-PCR) and percentage of FoxP3+ T cells (Flow Cytometry); format: cell-based; conditions: 1.5 mM of ivermectin, 5 days
Description: FoxP3, IL-17A and RORc mRNA expression levels were tested by RT-PCR (A). The percentage of FoxP3^+ T cells was determined by Flow Cytometry by using intra-cellular staining with PE-conjugated anti-Foxp3 antibody (B).

human PBMCs = assay: IL-17 and IFN-γ secretion in PBMCs stimulated by anti-CD3/CD28 in vitro; format: cell-based; conditions: anti-CD3/CD28 stimulation, 48 hours, ELISA
Description: The supernatants were analyzed for IL-17 and IFN-γ by ELISA. One representative of three different experiments is shown.

LPS-induced human PBMCs = assay: LPS-induced secretion of TNF-α, IL-6 and IL-23 in PBMCs; format: cell-based; conditions: PBMC, LPS activation for 2 days, ELISA
Description: The supernatants were analyzed for TNF-α, IL-6, and IL-23 by ELISA.

[5] = system: TLR-induced human monocytes; assay: IL-1β secretion in TLR-induced monocytes; format: cell-based; conditions: induced by LPS, Pam2CSK4 and Pam3CSK4 (100 ng/ml), 24 hours, ELISA
Description: The supernatants were analyzed for IL-1β by ELISA.

[6] = system: Monocytes-derived dendritic cells (moDC); assay: TNF-α and IL-6 secretion in dendritic cells; format: cell-based, human; conditions: moDC stimulated by Pam2CSK4 and Pam3CSK4, 24 hours, ELISA
Description: Monocytes-derived dendritic cells (moDC) were differentiated by culturing purified human monocytes with 25 ng/mL hGM-CSF and 50 ng/mL hTL-4 for 5-7 days to reach full differentiation. […] The supernatants were analyzed for IL-6 and TNF-α by ELISA. Bar graphs represent pooled data from 2-3 experiments.

PBMCs of human subjects = assay: Phase 1: IL-17 secretion in PBMCs stimulated ex vivo after oral administration; conditions: oral 10-120 mg, significant at 80 and 120 mg SAD and at all MAD doses, anti-CD3/CD28 48 hrs
Description: The supernatants were analyzed for IL-17 by ELISA.

C57BL/6 mice = assay: Experimental autoimmune encephalomyelitis (EAE) model of MS; format: in vivo, mouse; conditions: 1, 2, 4 mg/kg oral once daily, therapeutic from Day 14 to Day 34
Description: Vehicle was 1.6% DMSO in water. […] These were frozen at −20° C. Every 3 to 4 days, one aliquot was thawed and diluted with water to create a fine suspension at 0.8 mg/mL (for 4 mg/kg dosing). Final DMSO concentration was 1.6%. […] Per customer, all dosing formulations were stable for up to 4 days at 4° C. FTY720 stock solution (30 mg/mL in ethanol) was prepared for all ongoing studies. Daily, the FTY720 stock solution was diluted with water to the final dosing concentration of 0.6 mg/mL.
A balanced distribution of mice was confirmed by comparing mean day of onset, average score at EAE onset, average score on Day 14 and average weight on Day 13.
EAE was induced on Day 0 by myelin oligodendrocyte glycoprotein (MOG35-55)/complete Freund's adjuvant (CFA) immunization, followed by pertussis toxin (PTX) injections on Days O and 1. Treatment was therapeutic, starting on Day 14. […] Treatment continued through Day 34. Mice were observed through the end of the study, Day 35.
Clinical scores were assessed as follows: 1=limp tail, 2=partial hind leg paralysis, 3=complete hind leg paralysis, 4=complete hindleg and partial front leg paralysis; 5=moribund.

Sprague-Dawley rats = assay: Animal model of infantile spasms (NMDA-induced); format: in vivo, rat; conditions: 2 and 4 mg/kg i.p. daily P10-P15; p<0.05
Text: A two-stage model of infantile spasms was developed (FIG. 23A). Pregnant Sprague-Dawley rats receive two injections of betamethasone on gestational (G) day 15. Offspring of those pregnancies are used for experiments during infancy, postnatal days (P) 10-15. Spasms are induced by i.p. injection of N-methyl-D-aspartic acid (NMDA), which is graded depending on the postnatal age of the subjects.
Days of dosing were P10, P11, P12, P13, P14 and P15.

[7] = Ivermectin solubility determination in excipients
Description: The solubility assessments were performed by continually adding a known amount of the API into each individual excipient and letting the excipient reach solubility equilibrium via API saturation (visible solid observed). The experiments were conducted at ambient conditions (25° C.) and were left to mix on a stir plate at 500 RPM for at least 72 hours.

[8] = single IV 2 mg/kg, fasting male SD rats, n = 6

SMILES: Cc1cc(N2CCc3cc(F)ccc3C2)cc(C)c1NC(=O)CC(C)(C)C [XEN1101]
- Placebo-adjusted >50% Focal Seizure Reduction (focal seizures; 25 mg): 40%
- Placebo-adjusted Median Reduction in Focal Seizure Frequency (focal seizures; 25 mg): 35%

SMILES: CCC[C@@H]1CC(=O)N([C@@H](CC)C(N)=O)C1 [BRIVIACT, Brivaracetam]
- Placebo-adjusted >50% Focal Seizure Reduction (focal seizures; 200 mg): 18%
- Placebo-adjusted Median Reduction in Focal Seizure Frequency (focal seizures; 200 mg): 26%

SMILES: NC(=O)N1c2ccccc2C[C@H](O)c2ccccc21 [APTIOM, Eslicarbazepine]
- Placebo-adjusted >50% Focal Seizure Reduction (focal seizures; 1200 mg): 20%
- Placebo-adjusted Median Reduction in Focal Seizure Frequency (focal seizures; 2000 mg): 14-24%

SMILES: COC[C@@H](NC(C)=O)C(=O)NCc1ccccc1 [VIMPAT, Lacosamide]
- Placebo-adjusted >50% Focal Seizure Reduction (focal seizures; 400 mg): 17%
- Placebo-adjusted Median Reduction in Focal Seizure Frequency (focal seizures; 400 mg): 15-29%

SMILES: CC[C@@H](C(N)=O)N1CCCC1=O [KEPPRA, Leviteracetam]
- Placebo-adjusted >50% Focal Seizure Reduction (focal seizures; 3000 mg): 29%
- Placebo-adjusted Median Reduction in Focal Seizure Frequency (focal seizures; 3000 mg): 23-31%

SMILES: CCC(C)C1OC2(CCC1C)CC1CC(CC=C(C)C(OC3CC(OC)C(OC4CC(OC)C(O)C(C)O4)C(C)O3)C(C)C=CC=C3COC4C(O)C(C)=CC(C(=O)O1)C34O)O2 (stereo not drawn) [Ivermectin]
- AUC(0-t) [1, 8]: 8259.31 ng·h/mL
- AUC(0-∞) [1, 8]: 8273.53 ng·h/mL
- Cmax [1, 8]: 1722.67 ng/mL
- MRT(0-t) [1, 8]: 10.58 h
- MRT(0-∞) [1, 8]: 10.81 h
- T1/2 [1, 8]: 14.82 h
- T1/2 ([1]; single IV injection 2 mg/kg, male SD rats with fasting): 14.82 ± 0.72 h
- EC50 ([2]; Th17-skewing conditions, additional experiment (FIG. 6B), read-out: EC, inhibition of CXCL13 secretion): 378 nM
- EC50 ([2]; anti-CD3/CD28 + IL-1β + TGF-β (Th17-skewing), 48 hours, ELISA, read-out: EC50, inhibition of IFN-γ secretion): 541 nM
- EC50 ([2]; anti-CD3/CD28 + IL-1β + TGF-β (Th17-skewing), 48 hours, ELISA, read-out: EC50, inhibition of IL-17 secretion): 450 nM
- EC50 ([2]; anti-CD3/CD28 + IL-1β + TGF-β (Th17-skewing), 48 hours, ELISA, read-out: EC50, inhibition of IL-21 secretion): 364 nM
- STAT3 phosphorylation [3]: dose-dependent reduction
- inhibitor molecule protein (IkB)α phosphorylation [3]: dose-dependent reduction
- increase in the percentage of Foxp3+ T cells ([4]; Flow Cytometry): 50%
- FoxP3 mRNA levels ([4]; RT-PCR): up-regulation
- IL-17A mRNA expression ([4]; RT-PCR): decreased
- RORc mRNA expression ([4]; RT-PCR): decreased
- EC50 (human PBMCs; read-out: EC50, decrease of IFN-γ): 987 nM
- EC50 (human PBMCs; read-out: EC50, decrease of IL-17): 416 nM
- EC50 (LPS-induced human PBMCs; read-out: EC50, decrease of IL-6): 1300 nM
- EC50 (LPS-induced human PBMCs; read-out: EC50, decrease of IL-23): 470 nM
- EC50 (LPS-induced human PBMCs; read-out: EC50, decrease of TNF-α): 1400 nM
- IL-1β secretion [5]: significantly down-regulates; also recorded: reduced IL-1β in a dose-dependent manner
- IL-6 secretion [6]: significantly and in a dose-dependent manner down-regulates; also recorded: dose dependent decrease
- TNF-α secretion [6]: significantly and in a dose-dependent manner down-regulates; also recorded: dose dependent decrease
- ability of T cells to secrete IL-17 in response to TCR stimulation ex vivo (PBMCs of human subjects): down-regulates
- limb paralysis (clinical score) in EAE model of MS (C57BL/6 mice): significantly downregulates limb paralysis
- occurrence (number) of spasms triggered on P15 vs vehicle controls (Sprague-Dawley rats): significantly suppressed occurrence of spasms; also recorded: significantly fewer spasms
- Solubility ([7]; in Capryol 90, 25° C.): 150.92 mg/g
- Solubility ([7]; in Fractionated Coconut oil, 25° C.): 16.55 mg/g
- Solubility ([7]; in Glycerin, 25° C.): <0.1 mg/g
- Solubility ([7]; in Kolliphor EL, 25° C.): 95.85 mg/g
- Solubility ([7]; in Labrafil M 2125 CS, 25° C.): 35.32 mg/g
- Solubility ([7]; in Labrasol ALF, 25° C.): 126.36 mg/g
- Solubility ([7]; in LauroglycolTM FCC, 25° C.): 71.96 mg/g
- Solubility ([7]; in Maisine CC, 25° C.): 60.17 mg/g
- Solubility ([7]; in Masester E8120, 25° C.): 164.06 mg/g
- Solubility ([7]; in Medium Chain Triglyceride, 25° C.): 16.49 mg/g
- Solubility ([7]; in Oleic acid, 25° C.): 48.58 mg/g
- Solubility ([7]; in Olive oil, 25° C.): 4.71 mg/g
- Solubility ([7]; in PEG 400, 25° C.): 112.92 mg/g
- Solubility ([7]; in Propylene glycol, 25° C.): 25.61 mg/g
- Solubility ([7]; in Soybean oil, 25° C.): 6.72 mg/g
- Solubility ([7]; in Span 20, 25° C.): 97.66 mg/g
- Solubility ([7]; in Span 80, 25° C.): 54.04 mg/g
- Solubility ([7]; in Triacetin, 25° C.): 58.75 mg/g
- Solubility ([7]; in Tween 80, 25° C.): 88.26 mg/g
- Solubility ([7]; in Vitamin E TPGS, table title 25° C., text: conducted at 40° C.): 82.98 mg/g

SMILES: NC(=O)O[C@@H](Cn1ncnn1)c1ccccc1Cl [XCOPRI, Cenobamate]
- Placebo-adjusted >50% Focal Seizure Reduction (focal seizures; 400 mg): 39%
- Placebo-adjusted Median Reduction in Focal Seizure Frequency (focal seizures; 4200 mg): 31%
